Like-named read-outs stand apart in the source and are kept apart here.

One data set deals with HCMV. The data set can be described thus: Activity against HCMV in tissue culture (NHDF cell line). It counts as cell-based. Particulars: Human betaherpesvirus 5. The text has this: The title compound was synthesized using N^4 -benzoyl HPMPC diethyl ester tritylated at the hydroxyl group as a starting material. The starting material was detritylated using acetic acid and then converted to N^4 -benzoyl HPMPC using TMSBr. The resulting compound was converted to N^4 -benzoyl cHPMPC using DCC and morpholine in pyridine.

The next data set has as its system HSV II. The data set can be described thus: Inhibition of cytopathic effects by HSV II in MA 104 cells (XTT). Particulars: for IC50: Human alphaherpesvirus 2, MA104. It counts as cell-based, HSV-2. The method, then:
Compounds were individually tested for activity against HSV-1 and/or HSV-2. HSV-2 (strain 414-92) was tested using MA 104 cells in the following assay protocol. 96-Well plates were seeded with 1×10^4 MA 104 cells per well using 200 μL minimal essential medium (MEM) containing 10% calf serum per well, and incubated overnight at 37° C. The compounds were dissolved in MEM Earle's Salts without serum. The medium was removed by aspiration and 100 μL MEM Earle's Salts without serum was added to the wells. Serial 3-fold dilutions of the compounds were prepared by serial transfer of 50 μL of medium from wells containing compound to wells lacking compound. The plates were incubated 15 minutes at 37° C. followed by addition of 100 PFU/well of virus in MEM Earle's Salts with 2% fetal bovine serum. The plates were then incubated at 37° C. for three days until approximately 90% of the cells in virus infected control wells containing no compound were killed. Following incubation, medium was aspirated and the wells were washed with sterile PBS. […] The results, shown in Table 6, were expressed as the IC50, the concentration (μM) that inhibits cell killing mediated by HSV-2 by 50%. […] The toxicity of the compounds were expressed as the CC50, the concentration that kills 50% of uninfected cells.
For orientation: Cytopathic effects are the visible damage that an infection or toxin causes in cultured cells.

The subject of the next data set is HSV-2 (strain 414-92). Put plainly: Inhibition of HSV-2 mediated cell killing in MA 104 cells (crystal violet). To be noted: Human alphaherpesvirus 2, MA104, 72 h, read-out: HSV-2 IC50, concentration that inhibits cell killing mediated by HSV-2 by 50%. It counts as cell-based. The method, then:
Compounds were individually tested for activity against HSV-1 and/or HSV-2. HSV-2 (strain 414-92) was tested using MA 104 cells in the following assay protocol. 96-Well plates were seeded with 1×10^4 MA 104 cells per well using 200 μL minimal essential medium (MEM) containing 10% calf serum per well, and incubated overnight at 37° C. The compounds were dissolved in MEM Earle's Salts without serum. The medium was removed by aspiration and 100 μL MEM Earle's Salts without serum was added to the wells. Serial 3-fold dilutions of the compounds were prepared by serial transfer of 50 μL of medium from wells containing compound to wells lacking compound. The plates were incubated 15 minutes at 37° C. followed by addition of 100 PFU/well of virus in MEM Earle's Salts with 2% fetal bovine serum. The plates were then incubated at 37° C. for three days until approximately 90% of the cells in virus infected control wells containing no compound were killed. Following incubation, medium was aspirated and the wells were washed with sterile PBS. 100 μL 0.5% crystal violet in 20% methanol was then added to the wells for 5 minutes, aspirated and the wells were washed two or three times with distilled water. 200 μL of 0.01 N HCl was added to the wells and the absorbance of each well at 595 nm was determined. The results, shown in Table 6, were expressed as the IC50, the concentration (μM) that inhibits cell killing mediated by HSV-2 by 50%. […] The toxicity of the compounds were expressed as the CC50, the concentration that kills 50% of uninfected cells.

Data set [1] can be described thus: Toxicity to uninfected MA 104 cells. Particulars: monkey, read-out: CC50, concentration that kills 50% of uninfected cells. It counts as cell-based.
The next data set concerns KOS strain of HSV-1. The data set can be described thus: Activity against KOS strain of HSV-1 in VERO cells. It counts as cell-based. To be noted: read-out: HSV-1 EC50, concentration that inhibits cell killing by 50%. The method, then: The compounds were also tested for activity against the KOS strain of HSV-1 in VERO cells. The results, shown in Table 7, were expressed as the EC50, the concentration (μM) that inhibits cell killing mediated by HSV-2 by 50%.

For data set [2], the system named is herpes simplex virus, type 1 or 2 (HSV-1 and -2). To be noted: cited from earlier work.
A short description of a further data set: in vitro. To be noted: monkey, ma 104 cells. It counts as cell-based. How it is done:
Compounds were individually tested for activity against HSV-1 and/or HSV-2. HSV-2 (strain 414-92) was tested using MA 104 cells in the following assay protocol. 96-Well plates were seeded with 1×10^4 MA 104 cells per well using 200 μL minimal essential medium (MEM) containing 10% calf serum per well, and incubated overnight at 37° C. The compounds were dissolved in MEM Earle's Salts without serum. The medium was removed by aspiration and 100 μL MEM Earle's Salts without serum was added to the wells. Serial 3-fold dilutions of the compounds were prepared by serial transfer of 50 μL of medium from wells containing compound to wells lacking compound. The plates were incubated 15 minutes at 37° C. followed by addition of 100 PFU/well of virus in MEM Earle's Salts with 2% fetal bovine serum. The plates were then incubated at 37° C. for three days until approximately 90% of the cells in virus infected control wells containing no compound were killed. Following incubation, medium was aspirated and the wells were washed with sterile PBS. 100 μL 0.5% crystal violet in 20% methanol was then added to the wells for 5 minutes, aspirated and the wells were washed two or three times with distilled water. 200 μL of 0.01 N HCl was added to the wells and the absorbance of each well at 595 nm was determined. […]

The conditions of data set [3]: rhesus monkey, in vivo; cited from earlier work.
Data set [4] concerns varicella zoster virus (VZV). To be noted: cited from earlier work.
The test system of the next data set is adenovirus. Particulars: cited from earlier work.
The next data set has as its system vaccinia virus. To be noted: cited from earlier work.
The next data set is described as follows: in vivo. Particulars: rhesus monkey, po.
Data set [5] in a line: Conversion in rat intestinal homogenate. The format is in vitro ADME. The source says:
(§1) The cHPMPC pivaloyloxymethyl ester synthesis yields a racemic mixture at the phosphorus atom. The mixture was separated by HPLC into the two isomers which were then exposed to an rat intestinal homogenate or to a rat intestinal wash.

Data set [6] can be described thus: Conversion in rat intestinal wash. The format is in vitro ADME. Particulars: both phosphorus isomers.
Description: as §1

For data set [7], the system named is human cytomegalovirus (HCMV). Particulars: in both humans and animals; cited from earlier work.
Setting [8] is: MA 104 cells, HSV-2 strain 414-92, three days.
Setting [9] is: Human alphaherpesvirus 1, KOS strain of HSV-1, VERO cells.

`O=C(Nc1ccn(C[C@H]2COP(=O)(O)CO2)c(=O)n1)c1ccccc1` [N^4 -benzoyl cHPMPC]: the IC50 with HCMV was 22 µM.
In the case of `Nc1ncnc2c1ncn2CCOCP(=O)(Oc1ccccc1)Oc1ccccc1` [bis(phenyl)PMEA, Bis(phenyl)PMEA], in the data set on HSV II, the “activity (inhibition of cytopathic effects)” value was “active”.
Consider `Nc1ncnc2c1ncn2CCOCP(=O)(Oc1ccc(F)cc1)Oc1ccc(F)cc1` [bis(4-fluorophenyl)PMEA], for which the “activity (inhibition of cytopathic effects)” value in the data set with HSV II was “active”.
On to `CC(NP(=O)(COCCn1cnc2c(N)ncnc21)NC(C)C(=O)OC(C)(C)C)C(=O)OC(C)(C)C` (stereo not shown) [Ex 10], for which the IC50 with HSV-2 (strain 414-92) (setting [8]) was greater than 100 µM. Besides, in data set [1], the CC50 at 72 h was greater than 100 µM. For the same compound, the EC50 in the data set on KOS strain of HSV-1 (setting [9]) is greater than 200 µM.
`Nc1nc2c(ncn2C[C@@H](CO)OCP(=O)(O)O)c(=O)[nH]1` [(S)-HPMPG]: the antiviral activity result in data set [2] was “active”.
On to `CC(NP(=O)(COCCn1cnc2c(N)ncnc21)NC(C)C(=O)OCc1ccccc1)C(=O)OCc1ccccc1` (stereo not shown) [Ex 1, bis(alanyl benzyl ester)PMEA], for which the IC50 in the data set on HSV-2 (strain 414-92) (setting [8]) came out at 20 µM. Moreover, the CC50 at 72 h in [1] is greater than 100 µM.
Take `Nc1ncnc2c1ncn2CCOCP(=O)(O)O` [PMEA, reference compound]: the IC50 stood at 21 µM in the data set with HSV-2 (strain 414-92) and 19.3 µM in the data set with HSV II. The EC50 in the data set on KOS strain of HSV-1 (Human alphaherpesvirus 1, Vero) turned out to be 138 µM. In the data set “in vitro”, this compound returned a CC50 of 2000 µM. In data set [3], the Oral bioavailability is on record as 2-4%.
Take `Nc1ncnc2c1ncn2C[C@H]1COP(=O)(O)CO1` [(S)-cyclic HPMPA]: the antiviral activity entry (in [2]; in [4]; with adenovirus; in the data set on vaccinia virus) was “active” in each case.
Usually bioavailability stands for the share of a dose that reaches the circulation, judged against a reference dose that is usually intravenous. A lower bioavailability goes with little systemic uptake. For `CC(C)(C)C(=O)OCOP(=O)(COCCn1cnc2c(N)ncnc21)OCOC(=O)C(C)(C)C` [bis(POM)PMEA, reference compound], in the data set with HSV II, the “activity (inhibition of cytopathic effects)” value was “active” and the IC50 turned out to be 0.5 µM. For the same compound, the CC50 in “in vitro” was greater than 10 µM. In the data set “in vivo”, this compound had a bioavailability of roughly 25%.
Turning to `CCOC(=O)CNP(=O)(COCCn1cnc2c(N)ncnc21)NCC(=O)OCC` [Ex 7], the IC50 with HSV-2 (strain 414-92) (setting [8]) was greater than 100 µM. In data set [1], the CC50 at 72 h is greater than 100 µM. In addition, in the data set on KOS strain of HSV-1 (setting [9]), the EC50 is greater than 200 µM.
For the compound `CC(C)(C)C(=O)OCOP1(=O)CO[C@@H](Cn2ccc(N)nc2=O)CO1` (stereo partly shown) [cHPMPC pivaloyloxymethyl ester], the “metabolic conversion in homogenate” value in data set [5] (one of the two phosphorus isomers) is “converted to cHPMPC”; in data set [5] (the other phosphorus isomer), “converted to HPMPC pivaloyloxymethyl monoester”. The “conversion in intestinal wash” value in [6] is “converted to HPMPC pivaloyloxymethyl monoester”.
Take `CC(C)(C)OC(=O)CNP(=O)(COCCn1cnc2c(N)ncnc21)NCC(=O)OC(C)(C)C` [Ex 11]: the IC50 with HSV-2 (strain 414-92) (setting [8]) is greater than 100 µM. The CC50 at 72 h in [1] is greater than 100 µM. Also, in the data set with KOS strain of HSV-1 (setting [9]), the EC50 was greater than 200 µM.
Consider `CCOC(=O)c1ccccc1OP(=O)(COCCn1cnc2c(N)ncnc21)Oc1ccccc1C(=O)OCC`, for which the “activity (inhibition of cytopathic effects)” value with HSV II is on record as “active”.
With `Nc1ccn(C[C@@H](CO)OCP(=O)(O)O)c(=O)n1` [HPMPC], in the data set on HCMV, the IC50 amounted to 0.4 µM. Also, the antiviral activity result in [2] and in [7] was “active” throughout.
On to `Nc1ncnc2c1ncn2CCOCP(=O)(NC(Cc1ccccc1)C(=O)OCc1ccccc1)NC(Cc1ccccc1)C(=O)OCc1ccccc1` (stereo not shown) [Ex 2], for which, in the data set with HSV-2 (strain 414-92) (setting [8]), the IC50 was 4 µM. Moreover, the CC50 at 72 h in [1] turned out to be 20 µM.
On to `CC(C)CC(NP(=O)(COCCn1cnc2c(N)ncnc21)NC(CC(C)C)C(=O)OC(C)(C)C)C(=O)OC(C)(C)C` (stereo not shown) [Ex 9], for which the IC50 in the data set on HSV-2 (strain 414-92) (setting [8]) was 63 µM. Besides, the CC50 at 72 h in [1] was greater than 100 µM. In addition, the EC50 with KOS strain of HSV-1 (setting [9]) was 63 µM.
Consider `Nc1ncnc2c1ncn2CCOCP(=O)(NCC(=O)OCc1ccccc1)NCC(=O)OCc1ccccc1` [Ex 4, bis(glycyl benzyl ester)PMEA], for which the IC50 in the data set on HSV-2 (strain 414-92) (setting [8]) is 60 µM. For the same compound, the CC50 at 72 h in data set [1] is greater than 100 µM.
On to `CCOC(=O)C(C)NP(=O)(COCCn1cnc2c(N)ncnc21)NC(C)C(=O)OCC` (stereo not shown) [Ex 5], for which the IC50 in the data set on HSV-2 (strain 414-92) (setting [8]) was greater than 100 µM. Further, in data set [1], the CC50 at 72 h was greater than 100 µM.
`CCOC(=O)C(Cc1ccccc1)NP(=O)(COCCn1cnc2c(N)ncnc21)NC(Cc1ccccc1)C(=O)OCC` (stereo not shown) [Ex 12]: the IC50 in the data set with HSV-2 (strain 414-92) (setting [8]) was 20 µM. In addition, the CC50 at 72 h in data set [1] turned out to be 80 µM.
As to `COc1cccc(OP(=O)(COCCn2cnc3c(N)ncnc32)Oc2cccc(OC)c2)c1` [bis(3-methoxyphenyl)PMEA], in the data set with HSV II, the “activity (inhibition of cytopathic effects)” value is listed as “active”.
As to `CCOc1ccccc1OP(=O)(COCCn1cnc2c(N)ncnc21)Oc1ccccc1OCC` [bis(2-ethoxyphenyl)PMEA, Bis(2-ethoxyphenyl)PMEA], the “activity (inhibition of cytopathic effects)” value with HSV II was “active”.
For `Nc1nc(N)c2ncn(C[C@@H](CO)OCP(=O)(O)O)c2n1` [(S)-HPMPDAP], the antiviral activity entry in data set [2] was “active”.
In the case of `CCOC(=O)C(CC(C)C)NP(=O)(COCCn1cnc2c(N)ncnc21)NC(CC(C)C)C(=O)OCC` (stereo not shown) [Ex 6], the IC50 in the data set with HSV-2 (strain 414-92) (setting [8]) turned out to be 33 µM. For the same compound, the CC50 at 72 h in [1] was greater than 100 µM. For the same compound, the EC50 with KOS strain of HSV-1 (setting [9]) was 20 µM.
For the compound `Nc1ncnc2c1ncn2CCOCP(=O)(O)Oc1ccccc1` [monophenylPMEA, monophenyl ester of PMEA], the “activity (inhibition of cytopathic effects)” value in the data set on HSV II is recorded as “active”.
On the same count and under the same terms, in the case of `Nc1ncnc2c1ncn2CCOCP(=O)(OCOC(=O)C12CC3CC(CC(C3)C1)C2)OCOC(=O)C12CC3CC(CC(C3)C1)C2` [bis(adamantoyl oxymethyl)PMEA, bis(adamantoyl oxymethyl)PMEA ester] it was “active”; in that of `CN(C)c1cccc(OP(=O)(COCCn2cnc3c(N)ncnc32)Oc2cccc(N(C)C)c2)c1` [bis(3-dimethylaminophenyl)PMEA], “active”.

The values above are taken from patent US5717095A, “Nucleotide analogs” (Gilead Sciences, Inc., priority 1996, dated 1998).
